The values below come from patent US10548993B2, “Metal-encapsulated carbonaceous dots” (UNIVERSITY OF GEORGIA RESEARCH FOUNDATION, INC., priority 2014, dated 2020).

The conditions of series [1]: comparison value for Gd-DTPA, literature references; cited from earlier work.
Another series has as its system U87MG cells. In words: Cytotoxicity study, MTT assay with 2.5 mM Ca(II). Format: cell-based, human. Conditions: 24 h. How it is done: Gd@C-dots were also subjected to a cytotoxicity study with U87MG cells using standard MTT assays. The cells were first seeded in 96-well plates (1×10^4 cells per well). After 24 h, Gd@C-dots at different concentrations were added. Incubation was carried out for 24 h with or without 2.5 mM CaCl2. To assess the particles' stability against transmetallation, which is the major cause of toxicity for conventional Gd contrast agents (Corot et al., J. Magn. Reson. Imaging 1998, 8(3):695-702), 2.5 mM Ca(II) was added into the incubation medium.
In general terms: Tetrazolium dyes change colour on reduction, which living cells bring about.

Structures are written as SMILES.

Regarding `CNC[C@H](O)[C@@H](O)[C@H](O)[C@H](O)CO.CNC[C@H](O)[C@@H](O)[C@H](O)[C@H](O)CO.O=C([O-])CN(CCN(CC(=O)[O-])CC(=O)O)CCN(CC(=O)[O-])CC(=O)O.[Gd+3]` [Gd-DTPA, gadopentetic acid], in series [1], the r1 relaxivity is 3.10 mM⁻¹ s⁻¹. Besides, the “IC50 (cell death)” value in the series with U87MG cells came to 33.1 µg/mL.
